Source: patent US20230002372A1, “AZAINDOLE CARBOXAMIDE COMPOUNDS FOR THE TREATMENT OF MYCOBACTERIAL INFECTIONS” (THE GLOBAL ALLIANCE FOR TB DRUG DEVELOPMENT, INC., priority 2019, published 2023)
Values after ≈ are worked out from the molar mass of the structure shown.

Test system: M tb H37Rv
Assay: MIC determination against M tb H37Rv (green fluorescent protein reporter assay; MIC-MABA)
Type: cell-based, Mycobacterium tuberculosis
Settings: Mycobacterium tuberculosis, H37RV, 240 h, read-out: M. TB H37Rv: MIC-MABA: MIC, M. tb H37Rv; 7H9 broth; 10 days exposure; MIC = lowest concentration inhibiting fluorescence by 90%

Compared with C[C@@H]1[C@@H](NC(=O)c2cc3cc(F)ncc3[nH]2)C[C@H]2C[C@@H]1C2(C)C [MPL-128, 5-fluoro-N-[(1S,2S,3S,5R)-2,6,6-trimethylnorpinan-3-yl]-1H-pyrrolo[2,3-c]pyridine-2-carboxamide], C[C@@H]1[C@@H](NC(=O)c2cc3c(F)c(F)cnc3[nH]2)C[C@H]2C[C@@H]1C2(C)C [MPL-062, 4,5-difluoro-N-[(1S,2S,3S,5R)-2,6,6-trimethylnorpinan-3-yl]-1H-pyrrolo[2,3-b]pyridine-2-carboxamide] is 12-fold lower in MIC: 2.3 µg/mL (≈ 7.29 µM) for the first, 0.19 µg/mL (≈ 0.57 µM) for the second.

First: C[Si]1(C)CCC(NC(=O)c2cc3ccc(OC4CCC4)nc3[nH]2)CC1 [MPL-467, 6-(cyclobutoxy)-N-(1,1-dimethylsilinan-4-yl)-1H-pyrrolo[2,3-b]pyridine-2-carboxamide]
Second: C[Si]1(C)CCC(NC(=O)c2cc3ccc(-c4ccccc4)nc3[nH]2)CC1 [MPL-388, N-(1,1-dimethylsilinan-4-yl)-6-phenyl-1H-pyrrolo[2,3-b]pyridine-2-carboxamide]
The MIC of the first is 10-fold higher: 0.121 µg/mL (≈ 0.338 µM) for the first, 0.012 µg/mL (≈ 0.033 µM) for the second.

Compared with Cc1cc(Cl)c2cc(C(=O)N[C@H]3C[C@H]4C[C@H](C4(C)C)[C@@]3(C)O)[nH]c2n1 [MPL-218, 4-chloro-N-[(1R,2R,3S,5R)-2-hydroxy-2,6,6-trimethyl-norpinan-3-yl]-6-methyl-1H-pyrrolo[2,3-b]pyridine-2-carboxamide], Cc1nc2[nH]c(C(=O)N[C@H]3C[C@H]4C[C@H](C4(C)C)[C@@]3(C)O)cc2c(F)c1F [MPL-294, 4,5-difluoro-N-[(1R,2R,3S,5R)-2-hydroxy-2,6,6-trimethyl-norpinan-3-yl]-6-methyl-1H-pyrrolo[2,3-b]pyridine-2-carboxamide] is higher in MIC: 0.037 µg/mL (≈ 0.102 µM) for the first, > 1 µg/mL for the second.

Compared with O=C(NC1CCCCCCC1)c1cc2c(Br)ccnc2[nH]1 [MPL-035, 4-bromo-N-cyclooctyl-1H-pyrrolo[2,3-b]pyridine-2-carboxamide], Cc1ccnc2[nH]c(C(=O)NC3CCCCCCC3)cc12 [MPL-031, N-cyclooctyl-4-methyl-1H-pyrrolo[2,3-b]pyridine-2-carboxamide] is 1.8-fold higher in MIC: 0.14 µg/mL (≈ 0.4 µM) for the first, 0.25 µg/mL (≈ 0.876 µM) for the second.

First: Cc1cc(Cl)c2cc(C(=O)NC3CCCC[Si](C)(C)CC3)[nH]c2n1 (stereo not drawn) [MPL-275, 4-chloro-N-(1,1-dimethylsilocan-4-yl)-6-methyl-1H-pyrrolo[2,3-b]pyridine-2-carboxamide]
Second: Cc1cc(Cl)c2cc(C(=O)NC3CCC[Si](C)(C)CCC3)[nH]c2n1 [MPL-305]
The MIC of the first is 2.1-fold higher: 0.031 µg/mL (≈ 0.0852 µM) for the first, 0.015 µg/mL (≈ 0.0412 µM) for the second.

C[Si]1(C)CCC(NC(=O)c2cc3c(Cl)c(Cl)ncc3[nH]2)CC1 [MPL-349, 4,5-dichloro-N-(1,1-dimethylsilinan-4-yl)-1H-pyrrolo[2,3-c]pyridine-2-carboxamide] and Cc1ncc2[nH]c(C(=O)NC3CC[Si](C)(C)CC3)cc2c1Cl [MPL-328, 4-chloro-N-(1,1-dimethylsilinan-4-yl)-5-methyl-1H-pyrrolo[2,3-c]pyridine-2-carboxamide] are within 1.5-fold of each other in MIC: 0.068 µg/mL (≈ 0.191 µM) for the first, 0.061 µg/mL (≈ 0.182 µM) for the second.

First: Cc1cc2cc(C(=O)NC3CCCCCCC3)[nH]c2nc1C [MPL-071, N-cyclooctyl-5,6-dimethyl-1H-pyrrolo[2,3-b]pyridine-2-carboxamide]
Second: O=C(NC1CCCCCCC1)c1cc2cc(Cl)c(F)nc2[nH]1 [MPL-065a, 5-chloro-N-cyclooctyl-6-fluoro-1H-pyrrolo[2,3-b]pyridine-2-carboxamide]
The MIC of the first is 3.8-fold higher: 0.049 µg/mL (≈ 0.164 µM) for the first, 0.013 µg/mL (≈ 0.0401 µM) for the second.

Going from CC(C)Oc1cncc2[nH]c(C(=O)NC3CC[Si](C)(C)CC3)cc12 [MPL-382, N-(1,1-dimethylsilinan-4-yl)-4-isopropoxy-1H-pyrrolo[2,3-c]pyridine-2-carboxamide] to COc1cc(F)cc2[nH]c(C(=O)NC3CC[Si](C)(C)CC3)cc12 [MPL-196, N-(1,1-dimethylsilinan-4-yl)-6-fluoro-4-methoxy-1H-indole-2-carboxamide], the MIC falls from 0.368 µg/mL (≈ 1.07 µM) to 0.0048 µg/mL (≈ 0.0144 µM) (77-fold).

Going from CC1(C)C2CCC1(C)C(NC(=O)c1cc3c(C(F)(F)F)cncc3[nH]1)C2 (stereo not drawn) [MPL-190, 4-(trifluoromethyl)-N-(1,7,7-trimethylnorbornan-2-yl)-1H-pyrrolo[2,3-c]pyridine-2-carboxamide] to CC1(C)C2CCC1(C)C(NC(=O)c1cc3c(F)ccnc3[nH]1)C2 (stereo not drawn) [MPL-106, 4-fluoro-N-(1,7,7-trimethylnorbornan-2-yl)-1H-pyrrolo[2,3-b]pyridine-2-carboxamide], the MIC falls from 0.24 µg/mL (≈ 0.657 µM) to 0.16 µg/mL (≈ 0.507 µM) (1.5-fold).

First: O=C(NC1CC[Si]2(CCCCC2)CC1)c1cc2c(Cl)cncc2[nH]1 [MPL-260, 4-chloro-N-(6-silaspiro[5.5]undecan-3-yl)-1H-pyrrolo[2,3-c]pyridine-2-carboxamide]
Second: O=C(NC1CC[Si]2(CCCCC2)CC1)c1cc2c(F)c(Cl)ncc2[nH]1 [MPL-348, 5-chloro-4-fluoro-N-(6-silaspiro[5.5]undecan-3-yl)-1H-pyrrolo[2,3-c]pyridine-2-carboxamide]
The MIC of the first is 58-fold lower: 0.0075 µg/mL (≈ 0.0207 µM) for the first, 0.435 µg/mL (≈ 1.14 µM) for the second.

First: C[Si]1(C)CCC(NC(=O)c2cc3cc(C(F)(F)F)ncc3[nH]2)CC1 [MPL-321, N-(1,1-dimethylsilinan-4-yl)-5-(trifluoromethyl)-1H-pyrrolo[2,3-c]pyridine-2-carboxamide]
Second: C[Si]1(C)CCC(NC(=O)c2cc3cc(C(F)(F)F)ncc3[nH]2)C1 (stereo not drawn) [MPL-402, N-(1,1-dimethylsilolan-3-yl)-5-(trifluoromethyl)-1H-pyrrolo[2,3-c]pyridine-2-carboxamide]
The MIC of the first is 1.9-fold lower: 0.519 µg/mL (≈ 1.46 µM) for the first, 0.962 µg/mL (≈ 2.82 µM) for the second.

C[Si]1(C)CCC(NC(=O)c2cc3c(C#N)ccnc3[nH]2)CC1 [MPL-110, 4-cyano-N-(1,1-dimethylsilinan-4-yl)-1H-pyrrolo[2,3-b]pyridine-2-carboxamide] and C[Si]1(C)CCC(NC(=O)c2cc3c(F)ccnc3[nH]2)CC1 [MPL-109, N-(1,1-dimethylsilinan-4-yl)-4-fluoro-1H-pyrrolo[2,3-b]pyridine-2-carboxamide] are the same in MIC: 0.022 µg/mL (≈ 0.0704 µM) for the first, 0.022 µg/mL (≈ 0.072 µM) for the second.

Going from CC1(C)CCC(NC(=O)c2cc3c(C4CC4)ccnc3[nH]2)CC1 [MPL-017, 4-cyclopropyl-N-(4,4-dimethylcyclohexyl)-1H-pyrrolo[2,3-b]pyridine-2-carboxamide] to CC1(C)CCC(NC(=O)c2cc3c(Br)ccnc3[nH]2)CC1 [MPL-007, 4-bromo-N-(4,4-dimethylcyclohexyl)-1H-pyrrolo[2,3-b]pyridine-2-carboxamide], the MIC falls from 0.72 µg/mL (≈ 2.31 µM) to 0.12 µg/mL (≈ 0.343 µM) (6-fold).

Going from CNc1ccnc2[nH]c(C(=O)N[C@H]3C[C@H]4C[C@@H]([C@@H]3C)C4(C)C)cc12 [MPL-023, 4-(methylamino)-N-[(1S,2S,3S,5R)-2,6,6-trimethylnorpinan-3-yl]-1H-pyrrolo[2,3-b]pyridine-2-carboxamide] to C[C@@H]1[C@@H](NC(=O)c2cc3c(C(F)(F)F)ccnc3[nH]2)C[C@H]2C[C@@H]1C2(C)C [MPL-015, 4-(trifluoromethyl)-N-[(1S,2S,3S,5R)-2,6,6-trimethylnorpinan-3-yl]-1H-pyrrolo[2,3-b]pyridine-2-carboxamide], the MIC falls from 11 µg/mL (≈ 33.7 µM) to 0.044 µg/mL (≈ 0.12 µM) (250-fold).

O=C(NC1CCCCCCC1)c1cc2c(C(F)(F)F)ccnc2[nH]1 [MPL-037, N-cyclooctyl-4-(trifluoromethyl)-1H-pyrrolo[2,3-b]pyridine-2-carboxamide] and C[Si]1(C)CCC(NC(=O)c2cc3c(C(F)(F)F)ccnc3[nH]2)CC1 [MPL-111, N-(1,1-dimethylsilinan-4-yl)-4-(trifluoromethyl)-1H-pyrrolo[2,3-b]pyridine-2-carboxamide] are within 1.5-fold of each other in MIC: 0.014 µg/mL (≈ 0.0413 µM) for the first, 0.0095 µg/mL (≈ 0.0267 µM) for the second.

First: O=C(NC1CC[Si]2(CCCCC2)CC1)c1cc2c(F)c(C(F)(F)F)ncc2[nH]1 [MPL-368, 4-fluoro-N-(6-silaspiro[5.5]undecan-3-yl)-5-(trifluoromethyl)-1H-pyrrolo[2,3-c]pyridine-2-carboxamide]
Second: O=C(NC1CC[Si]2(CCCC2)CC1)c1cc2c(F)c(C(F)(F)F)ncc2[nH]1 [MPL-367, 4-fluoro-N-(5-silaspiro[4.5]decan-8-yl)-5-(trifluoromethyl)-1H-pyrrolo[2,3-c]pyridine-2-carboxamide]
The MIC of the first is 2-fold lower: 0.49 µg/mL (≈ 1.19 µM) for the first, 0.988 µg/mL (≈ 2.47 µM) for the second.

Compared with CC1(C)CCC(NC(=O)c2cc3c(F)c(F)cnc3[nH]2)CC1 [MPL-063, N-(4,4-dimethylcyclohexyl)-4,5-difluoro-1H-pyrrolo[2,3-b]pyridine-2-carboxamide], Cc1nc2[nH]c(C(=O)NC3CCC(C)(C)CC3)cc2c(F)c1Cl [MPL-069, 5-chloro-N-(4,4-dimethylcyclohexyl)-4-fluoro-6-methyl-1H-pyrrolo[2,3-b]pyridine-2-carboxamide] is 14-fold lower in MIC: 0.14 µg/mL (≈ 0.456 µM) for the first, 0.0099 µg/mL (≈ 0.0293 µM) for the second.

Compared with CC1(C)[C@H]2C[C@H](NC(=O)c3cc4c(Cl)cncc4[nH]3)[C@](C)(O)[C@@H]1C2 [MPL-222, 4-chloro-N-[(1R,2R, 3S, 5R)-2-hydroxy-2,6,6-trimethyl-norpinan-3-yl]-1H-Pyrrolo[2,3-c]pyridine-2-carboxamide], CC1(C)CCC(NC(=O)c2cc3c(F)cncc3[nH]2)CC1 [MPL-094, N-(4,4-dimethylcyclohexyl)-4-fluoro-1H-pyrrolo[2,3-c]pyridine-2-carboxamide] is 3.9-fold lower in MIC: 0.19 µg/mL (≈ 0.546 µM) for the first, 0.049 µg/mL (≈ 0.169 µM) for the second.

First: COc1cc(Cl)c2cc(C(=O)NC3CC[Si](C)(C)CC3)[nH]c2n1 [MPL-465, 4-chloro-N-(1,1-dimethylsilinan-4-yl)-6-methoxy-1H-pyrrolo[2,3-b]pyridine-2-carboxamide]
Second: Cc1nc(Cl)c(F)c2cc(C(=O)NC3CC[Si](C)(C)CC3)[nH]c12 [MPL-236, 5-chloro-N-(1,1-dimethylsilinan-4-yl)-4-fluoro-7-methyl-1H-pyrrolo[2,3-c]pyridine-2-carboxamide]
The MIC of the first is 22-fold lower: 0.008 µg/mL (≈ 0.0227 µM) for the first, 0.18 µg/mL (≈ 0.509 µM) for the second.

Going from Cc1c(C(=O)NC2CC[Si](C)(C)CC2)[nH]c2cncc(F)c12 [MPL-226, N-(1,1-dimethylsilinan-4-yl)-4-fluoro-3-methyl-1H-pyrrolo[2,3-c]pyridine-2-carboxamide] to Cc1cc(F)c2c(C)c(C(=O)NC3CC[Si]4(CCCCC4)CC3)[nH]c2n1 [MPL-281, 4-fluoro-3,6-dimethyl-N-(6-silaspiro[5.5]undecan-3-yl)-1H-pyrrolo[2,3-b]pyridine-2-carboxamide], the MIC falls from 0.75 µg/mL (≈ 2.35 µM) to 0.0151 µg/mL (≈ 0.0404 µM) (50-fold).

Going from Cc1ncc2[nH]c(C(=O)NC3CC[Si]4(CCCCC4)CC3)cc2c1F [MPL-320, 4-fluoro-5-methyl-N-(6-silaspiro[5.5]undecan-3-yl)-1H-pyrrolo[2,3-c]pyridine-2-carboxamide] to Cc1nc2[nH]c(C(=O)NC3CCCCCCC3)cc2c(F)c1F [MPL-290, N-cyclooctyl-4,5-difluoro-6-methyl-1H-pyrrolo[2,3-b]pyridine-2-carboxamide], the MIC falls from 0.25 µg/mL (≈ 0.695 µM) to 0.005 µg/mL (≈ 0.0156 µM) (50-fold).
